Test results as given in article PMC13342671 (Nature Communications, 2026).

Columns and labels:
Assay type in all cases: cell-based, Human
[1] = tested on: p53 pathway genes in BxPC-3 cells; assay: RNA sequencing / GSEA in BxPC-3 cells; details: 3 µM, 4 h
[2] = tested on: A549-p53^Y220C cells; assay: SA-β-galactosidase senescence stain; details: 3 µM, 6-day treatment
[3] = tested on: A549-p53^Y220C cells; assay: Apoptosis FACS; details: 3 µM

Compound | share of the top 116 p53 target genes with significantly increased expression [1] | SA-β-gal senescence staining (in words) [2] | apoptosis induction (in words) [3]
Cc1sc2c(c1C)C(c1ccc(Cl)cc1)=N[C@@H](CC(=O)OC(C)(C)C)c1nnc(C)n1-2 [JQ1] | 57.0% | relatively few senescent cells | slightly less apoptosis
CCn1c2ccc(CNCCOCCOCCOCCn3cc(COc4ccc(CCc5nc6cc(-c7c(C)noc7C)ccc6n5CCN5CCOCC5)cc4F)nn3)cc2c2ccc(-c3cc(C)cs3)cc21 [MS78] | 22.8% | – | –
